Measurements taken from US20250134884A1, “METHOD AND PHARMACEUTICAL COMPOSITION FOR TREATING TYPE II DIABETES” (LUMISTAR BIOTECHNOLOGY, INC., priority 2023, published 2025).

How the values were obtained:
MIN6 cells [1] = assay: Insulin secretion by hINS-GLuc luciferase reporter in MIN6 β cells under high glucose; format: cell-based, mouse; conditions: 20 mM glucose; for position among the top five compounds with significant increase in insulin secretion relative to high glucose stimulation: Table 2; for insulin secretion compared to the DMSO control group (luminescence signals from secreted insulin): MIN6 cells, FIG. 4
Description: With the inclusion of a luciferase-tagged insulin construct, hINS-GLuc allows for rapid quantification of secreted insulin in the supernatant for drug screening, unlike the traditional method of measuring insulin via ELISA. This quantification is achieved by measuring the luminescence (relative light units, RLU) upon adding the luciferin of coelenterazine.
For measuring insulin secretion, the medium will first be removed, and MIN6 cells will then be rinsed in Krebs-Ringer buffer (119 mM NaCl, 4.74 mM KCl, 2.54 mM CaCl2), 1.19 mM MgSO4, 1.19 mM KH2PO4, 25 mM NaHCO3, 10 mM Hepes, and 0.1% BSA, pH 7.4) before incubation with or without 20 mM glucose in Krebs-Ringer buffer. Compounds will be added at a final concentration of 25 μM for two hours. At the end of the incubation period, the buffer will be removed, and the cells will then be briefly centrifuged, with the supernatant collected for measuring insulin secretion. Measurement of insulin secretion and C-peptide release will be performed using either an insulin or C-peptide ELISA kit (FIG. 1A), according to the manufacturer's instructions (Mercodia), or by measuring luminescence after adding luciferin (FIGS. 2A, 2B, and 4).
With the establishment of reporter platform in β cell lines, 50 drugs screening with compounds associated with pathways associated with metabolic diseases are conducted. This included inhibitor or agonist against Glucagon-like peptide-1 (GLP-1), Cytochrome c oxidase (COX), Phosphodiesterase (PDE), AMP activated protein kinase (AMPK), dipeptidyl peptidase-4 (DPP-4), calcium and potassium channels, 5-hydroxytryptamine (5-HT) or estrogen/progestogen receptors. As compounds can either “trigger” insulin secretion (i.e., in low glucose condition) or “amplify” insulin secretion (i.e., in high glucose condition). To mimic hyperglycemic condition, the compounds that may amplify insulin secretion under high glucose conditions have been chosen.
To enable this screen, we adapted a 96 well format with β cells plated 74 hours prior to compound challenge in triplicates. Post-stimulation, supernatant was aliquoted and transferred into at least 2 empty plates for either storage or luciferase measurement with the addition of coelenterazine.
FIG. 4 is a relative light unit graph depicting the ability of various 5-HT1A receptor antagonists to induce insulin secretion in MIN6 cells in the presence of a high concentration of glucose.

MIN6 cells [2] = assay: Single cell Ca2+ flux monitoring with K-GECO1 reporter; format: cell-based, mouse; conditions: 20 mM glucose and 25 μM WAY-100635 Maleate, FIG. 3C
Excerpt: One component of the reporter construct is a red fluorescent protein (RFP)-based Ca^2+ indicator (i.e., K-GECO1, reporter with an affinity for calcium ion) that is expressed within the cytoplasm. In this example, an inverted microscope (D1, Zeiss) equipped with a 63 Å˜objective lens (NA 1.4, Zeiss) and a multiwavelength LED light source (pE-4000, CoolLED) will be used. Blue (470 nm) and green (550 nm) excitation will be used to illuminate ChR2-EYFP and K-GECO1, respectively. The green fluorescent protein (GFP) filter set, and the red fluorescent protein (RFP) filter set will be used to confirm the expression of ChR2-EYFP and K-GECO1 in cells. […]
This allowed the detection of Ca^2+ influx into β cell as a consequence of calcium channel opening. β cells expressing the reporter construct were first stimulated with glucose (e.g., 20 mM glucose) to establish a baseline profile of Ca^2+ influx over time. […] FIG. 3A is the fluorescence intensity graph using the K-GECO1 reporter gene in Min6 cells to monitor glucose stimulation; and FIG. 3B is a representative image using the K-GECO1 reporter gene in Min6 cells after glucose stimulation. In FIG. 3A, the horizontal axis represents time (minutes), the vertical axis represents fluorescence intensity, and an arrow represents the point of stimulation and lines represent individual cells. […]

Molecule	position among the top five compounds with significant increase in insulin secretion relative to high glucose stimulation (MIN6 cells [1]; compound 25 μM, two hours)	insulin secretion compared to the DMSO control group (luminescence signals from secreted insulin) (MIN6 cells [1])	Ca2+ influx profile (K-GECO1 fluorescence intensity) (MIN6 cells [2])	insulin secretion relative to high glucose stimulation alone (luminescence, RLU) (MIN6 cells [1]; compound 25 μM, two hours, reporter expressing β cells, FIG. 2A)
Cc1[nH]c(=O)c(C#N)cc1-c1ccncc1 [Milrinone]	5			
CCC(=O)c1c(O)cc(O)cc1O [Flopropione]		did not show a significant increase		
COc1ccccc1N1CCN(CCN(C(=O)C2CCCCC2)c2ccccn2)CC1.O=C(O)/C=C\C(=O)O [WAY-100635 maleate]	3	significantly increased	significant change in Ca^2+ influx profile	promotes insulin secretion
C[C@H](CN(C(=O)c1ccc(C#N)cc1)c1ccccn1)N1CCN(c2cccc3c2OCCO3)CC1 [Lecozotan]		did not show a significant increase		
CC(C)Cn1c(=O)n(C)c(=O)c2[nH]cnc21 [IBMX]	4			
O=c1c(O)c(-c2ccc(O)cc2)oc2cc(O)cc(O)c12 [Kaempferol]	2			
Exendin-4	1			
